Conditions: Liquid, Vibrating tube method

c1ccsc1 [thiophene]
Conditions | mass density [kg/m3]
293.15 K, 101 kPa | 1063.59
303.15 K, 101 kPa | 1051.55
313.09 K, 1029 kPa | 1040.96
313.09 K, 1969 kPa | 1041.84
313.09 K, 2970 kPa | 1042.78
313.09 K, 3987 kPa | 1043.71
313.09 K, 5055 kPa | 1044.72
313.09 K, 5952 kPa | 1045.51
313.09 K, 6937 kPa | 1046.43
313.09 K, 8032 kPa | 1047.39
313.09 K, 9218 kPa | 1048.44
313.09 K, 10045 kPa | 1049.18
313.09 K, 11012 kPa | 1050.03
313.09 K, 12014 kPa | 1050.9
313.09 K, 12995 kPa | 1051.74
313.09 K, 13961 kPa | 1052.59
313.09 K, 14970 kPa | 1053.43
313.09 K, 15953 kPa | 1054.26
313.09 K, 17004 kPa | 1055.16
313.09 K, 18003 kPa | 1055.95
313.09 K, 18904 kPa | 1056.76
313.15 K, 101 kPa | 1039.32
323.01 K, 1047 kPa | 1028.97
323.01 K, 2059 kPa | 1029.98
323.01 K, 3070 kPa | 1031.02
323.01 K, 4047 kPa | 1031.99
323.01 K, 5002 kPa | 1032.9
323.01 K, 6005 kPa | 1033.9
323.01 K, 7068 kPa | 1034.92
323.01 K, 8021 kPa | 1035.81
323.01 K, 9013 kPa | 1036.76
323.01 K, 10005 kPa | 1037.67
323.01 K, 10991 kPa | 1038.62
323.01 K, 12034 kPa | 1039.58
323.01 K, 12977 kPa | 1040.44
323.01 K, 13999 kPa | 1041.38
323.01 K, 14991 kPa | 1042.26
323.01 K, 15995 kPa | 1043.17
323.01 K, 16998 kPa | 1044.03
323.01 K, 17983 kPa | 1044.93
323.01 K, 18951 kPa | 1045.78
323.15 K, 101 kPa | 1026.98
332.85 K, 1015 kPa | 1016.93
332.85 K, 2035 kPa | 1018
332.85 K, 3004 kPa | 1019.06
332.85 K, 3964 kPa | 1020.05
332.85 K, 4991 kPa | 1021.14
332.85 K, 6001 kPa | 1022.17
332.85 K, 7014 kPa | 1023.21
332.85 K, 7998 kPa | 1024.2
332.85 K, 9009 kPa | 1025.23
332.85 K, 9995 kPa | 1026.19
332.85 K, 10989 kPa | 1027.18
332.85 K, 12006 kPa | 1028.17
332.85 K, 13009 kPa | 1029.18
332.85 K, 13971 kPa | 1030.09
332.85 K, 15006 kPa | 1031.04
332.85 K, 15990 kPa | 1032.01
332.85 K, 17050 kPa | 1033.03
332.85 K, 17976 kPa | 1033.88
332.85 K, 19018 kPa | 1034.92
333.15 K, 101 kPa | 1014.58
342.77 K, 1039 kPa | 1004.75
342.77 K, 2072 kPa | 1005.93
342.77 K, 3033 kPa | 1007.02
342.77 K, 4023 kPa | 1008.17
342.77 K, 5027 kPa | 1009.26
342.77 K, 6033 kPa | 1010.36
342.77 K, 7008 kPa | 1011.44
342.77 K, 7998 kPa | 1012.5
342.77 K, 9005 kPa | 1013.59
342.77 K, 10000 kPa | 1014.65
342.77 K, 10963 kPa | 1015.65
342.77 K, 12009 kPa | 1016.72
342.77 K, 13023 kPa | 1017.82
342.77 K, 13928 kPa | 1018.74
342.77 K, 15009 kPa | 1019.83
342.77 K, 15998 kPa | 1020.79
342.77 K, 17025 kPa | 1021.8
342.77 K, 17995 kPa | 1022.8
342.77 K, 19013 kPa | 1023.79
342.77 K, 20001 kPa | 1024.73
343.15 K, 101 kPa | 1002.15
352.67 K, 1064 kPa | 992.39
352.67 K, 2003 kPa | 993.54
352.67 K, 3024 kPa | 994.79
352.67 K, 4003 kPa | 995.98
352.67 K, 5048 kPa | 997.22
352.67 K, 6013 kPa | 998.36
352.67 K, 7013 kPa | 999.51
352.67 K, 8050 kPa | 1000.73
352.67 K, 9018 kPa | 1001.82
352.67 K, 10003 kPa | 1002.93
352.67 K, 11003 kPa | 1004.07
352.67 K, 12004 kPa | 1005.16
352.67 K, 12998 kPa | 1006.25
352.67 K, 14005 kPa | 1007.34
352.67 K, 15038 kPa | 1008.46
352.67 K, 16006 kPa | 1009.49
352.67 K, 17027 kPa | 1010.58
352.67 K, 18001 kPa | 1011.6
352.67 K, 19031 kPa | 1012.65
352.67 K, 20017 kPa | 1013.74
353.15 K, 101 kPa | 989.76
362.51 K, 1007 kPa | 979.8
362.51 K, 2022 kPa | 981.13
362.51 K, 3029 kPa | 982.49
362.51 K, 4004 kPa | 983.74
362.51 K, 5006 kPa | 985.01
362.51 K, 6003 kPa | 986.27
362.51 K, 6999 kPa | 987.5
362.51 K, 7993 kPa | 988.73
362.51 K, 9007 kPa | 989.99
362.51 K, 9993 kPa | 991.16
362.51 K, 10997 kPa | 992.36
362.51 K, 11993 kPa | 993.56
362.51 K, 12838 kPa | 994.53
362.51 K, 14038 kPa | 995.94
362.51 K, 15044 kPa | 997.1
362.51 K, 16029 kPa | 998.18
362.51 K, 17006 kPa | 999.27
362.51 K, 18016 kPa | 1000.4
362.51 K, 18987 kPa | 1001.47
